“And” between values parts separate entries of the source, which are not always exact repeats. Equal values may be shown once. Read-outs that look alike come from different tables or passages of the source.
Assays:
SARS-CoV-2 [1] = assay: SARS-CoV-2 infection assay, viral RNA in culture supernatant by real-time RT-PCR; format: cell-based, SARS-CoV-2 Wk-521 strain; conditions: for effect of pathway inhibitors on viral RNA (in words) / reduction of viral replication: 10 μM; for IC90: Severe acute respiratory syndrome coronavirus 2, read-out: IC90 (90% maximal inhibitory concentration); for IC90 / IC50: viral RNA in culture supernatant, VeroE6/TMPRSS2 cells; for IC50: Severe acute respiratory syndrome coronavirus 2, read-out: IC50 (50% maximal inhibitory concentration); for effect on viral RNA level (in words): semi-synthetic oxysterols, up to 15 μM; for reduction of viral RNA production: 15 μM
in vitro = conditions: African green monkey
VeroE6/TMPRSS2 cells = assay: Cell viability by MTT assay; conditions: up to 15 μM
[2] = Pharmacokinetics in mice, single oral gavage dose; format: in vivo, balb/c mice; conditions: single oral dose 200 mg/kg; for Cmax: 200 mg/kg, read-out: Cmax (peak plasma concentration)
SARS-CoV-2 [3] = assay: Electron microscopy of double-membrane vesicle formation in infected cells; conditions: 10 μM, VeroE6/TMPRSS2 cells, MOI 1, 7 h
hepatitis C virus (HCV) = assay: HCV replication assay, luciferase in LucNeo#2 replicon cells; format: cell-based, HCV NN strain (genotype-1b); conditions: 10 μM Oxy210, 1 μM sofosbuvir, 48 h
Procedure: N, nucleus; M, mitochondria; *, double-membrane vesicle.
HCV replication activity was measured using LucNeo#2 cells, carrying a subgenomic replicon RNA for an HCV NN strain (genotype-1b) and the luciferase gene driven by the HCV replication. LucNeo#2 cells were treated with the compounds indicated in Figure 3C for 48 h, and the luciferase activity was measured with Luciferase Assay System kit (Promega, Madison, WI, USA).

SARS-CoV-2 [4] = assay: Viral N protein by indirect immunofluorescence; format: cell-based, SARS-CoV-2 Wk-521 strain; conditions: 10 μM RDV, 30 μM cholesterol, 30 μM 7-KC, 10 μM Oxy133, 10 μM Oxy210
SARS-CoV-2 [5] = assay: Time of addition assay (whole life cycle, entry, post-entry); format: cell-based, SARS-CoV-2 Wk-521 strain; conditions: 10 μM Oxy210, 10 μM Oxy133; for viral RNA, compound present post-entry (in words): 15 μM RDV, added 2 h post-inoculation for 21 h
SARS-CoV-2 [6] = assay: Virus-induced cytopathic effect (CPE) viewed under a microscope; format: cell-based, SARS-CoV-2 Wk-521 strain; conditions: 48 h post-inoculation; 10 μM RDV, 30 μM cholesterol, 30 μM 7-KC, 10 μM Oxy133, 10 μM Oxy210
TGFβ signaling [7] = conditions: fibroblastic cells and tumor cells ref 16; cited from earlier work
Hh signaling [8] = conditions: fibroblastic cells and tumor cells ref 16; cited from earlier work
TGFβ signaling [9] = assay: TGFβ activity, CTGF mRNA in NIH3T3 cells; format: cell-based; conditions: 10 μM, NIH3T3 cells stimulated with 20 ng/mL TGFβ
Procedure: (§1) Scale bar, 100 μm. (B) Viral N protein in the cells was detected by immunofluorescence analysis as described in Figure 1C. Scale bar, 50 μm. (C) Dose-response curves for viral RNA upon treatment with oxysterol derivatives as indicated. The secreted viral RNA in the culture supernatant at 24 h post-inoculation was quantified by real-time RT-PCR and plotted against compound concentration. The chemical structures of oxysterols are also shown above the graphs. (D) Viability of cells treated with the compounds was quantified using an MTT assay. (E,F) Inhibitory effects toward transforming growth factor β (TGFβ) and hedgehog (Hh) signaling. […] Cellular mRNAs were extracted to quantify a TGFβ-downstream gene, connective tissue growth factor (CTGF) (E), a Hh target gene, Gli1 (F), and Oaz1 for normalization of CTGF and Gli1 (E,F).
(§2) TGFβ activity was examined with NIH3T3 cells precultured with DMEM containing 0.1% bovine calf serum (BCS) overnight. NIH3T3 cells were pretreated with the compounds for 2 h and then stimulated with TGFβ1 (20 ng/mL) in the presence or absence of compounds. After 48 h, RNA was extracted from the cells and analyzed for quantifying the mRNA for a TGFβ target gene, connective tissue growth factor (CTGF), and Oaz1 for normalization. […] Cellular RNA was extracted and analyzed for the expression of a Hh target gene, Gli1, and normalized to Oaz1 expression.

Hh signaling [10] = assay: Hedgehog activity, Gli1 mRNA in NIH3T3 cells; format: cell-based; conditions: 10 μM, CAPAN-1 conditioned medium containing Shh
Procedure: as §1, §2

[11] = Cell viability by MTT assay; conditions: African green monkey, VeroE6 cells stably overexpressing TMPRSS2

Question: For CS(=O)(=O)c1ccc(C(=O)Nc2ccc(Cl)c(-c3ccccn3)c2)c(Cl)c1 [GDC0449, reference compound], which “effect of pathway inhibitors on viral RNA (in words)” value (SARS-CoV-2 [1]; 24 h post-inoculation) is on record?
Answer: did not decrease the viral RNA levels

Question: With CCCCCC[C@@](C)(O)[C@H]1CC[C@H]2[C@@H]3C[C@H](O)[C@H]4C[C@@H](O)CC[C@]4(C)[C@H]3CC[C@@]21C [Oxy133] as the compound, how does the IC90 (SARS-CoV-2 [1]; 24 h post-inoculation) read?
Answer: > 15 µM

Question: What about the IC50 (SARS-CoV-2 [1]; 24 h post-inoculation) of the same compound?
Answer: > 15 µM

Question: And the “effect on viral RNA level (in words)” value (SARS-CoV-2 [1]; 24 h post-inoculation)?
Answer: did not show antiviral activity up to 15 μM

Question: And the CC50 (in vitro)?
Answer: > 15 µM

Question: With C[C@]12CC[C@H](O)C[C@@H]1CC[C@@H]1[C@@H]2CC[C@@]2(C)[C@H]1CC[C@@H]2[C@](C)(O)CCc1ccc(F)cc1 [Oxy186] as the compound, how does the “maximum reduction in viral RNA as compared to control” value (SARS-CoV-2 [1]; 12 μM, 24 h post-inoculation) read?
Answer: 83%

Question: What about the IC90 (SARS-CoV-2 [1]; 24 h post-inoculation) of the same compound?
Answer: > 15 µM

Question: What about the IC50 (SARS-CoV-2 [1]; 24 h post-inoculation) of the same compound?
Answer: 7.4 µM

Question: What about the “effect on viral RNA level (in words)” value (SARS-CoV-2 [1]; 24 h post-inoculation) of the same compound?
Answer: reduced viral RNA level in a dose-dependent manner

Question: And the CC50 (in vitro)?
Answer: > 15 µM

Question: And the “cytotoxicity / cell viability (in words)” value (VeroE6/TMPRSS2 cells)?
Answer: No significant cytotoxicity

Question: Which results are given for C[C@]12CC[C@H]3[C@@H](CC=C4C[C@@H](O)CC[C@@]43C)[C@@H]1CC[C@@H]2[C@](C)(O)CCc1cccnc1 [Oxy210]?
Answer: Cmax ([2]; balb/c, mouse, in vivo, po, plasma): 8160 ng/mL and 19.4 µM; MRT ([2]; balb/c, mouse, in vivo, plasma): 3.5 h; Tmax ([2]; balb/c, mouse, in vivo, plasma): 1 h; AUC(0-inf) ([2]; balb/c, mouse, in vivo, plasma, read-out: AUC (AUCinf)): 29300 ng·h/mL; tolerability (in words) [2]: well tolerated; Cmax ([2]; plasma): ~19 µM; DMV formation in SARS-CoV-2-infected cells (in words) (SARS-CoV-2 [3]): remarkably reduced the DMV formation; HCV replication, luciferase activity (in words) (hepatitis C virus (HCV)): reduced the DMV-dependent RNA replication of HCV; reduction of viral replication (SARS-CoV-2 [1]): more than 90%; reduction of viral RNA production (SARS-CoV-2 [1]; 24 h post-inoculation): 99.4% and > 99%; IC90 (SARS-CoV-2 [1]; 24 h post-inoculation): 8.6 µM; IC50 (SARS-CoV-2 [1]; 24 h post-inoculation): 5.5 µM; effect on viral RNA level (in words) (SARS-CoV-2 [1]; 24 h post-inoculation): reduced viral RNA level in a dose-dependent manner; effect on virus propagation / spread of infection, N protein (in words) (SARS-CoV-2 [4]): blocked; CC50 (in vitro): > 15 µM; viral RNA, compound present in the whole life cycle (in words) (SARS-CoV-2 [5]; 24 h): clearly reduced viral RNA levels; viral RNA, compound present post-entry (in words) (SARS-CoV-2 [5]): clearly reduced viral RNA levels; effect on SARS-CoV-2-induced CPE (in words) (SARS-CoV-2 [6]): blocked; cytotoxicity / cell viability (in words) (VeroE6/TMPRSS2 cells): No significant cytotoxicity; inhibition of TGFβ signaling (in words) (TGFβ signaling [7]): inhibited; inhibition of Hh signaling (in words) (Hh signaling [8]): inhibited

Question: With CC[C@@](O)(CCc1cccnc1)[C@H]1CC[C@H]2[C@@H]3CC[C@H]4C[C@@H](O)CC[C@]4(C)[C@H]3CC[C@]12C [Oxy232] as the compound, how does the “inhibition of TGFβ signaling (CTGF mRNA, in words)” value (TGFβ signaling [9]) read?
Answer: devoid of significant TGFβ inhibitory properties

Question: What about the “reduction of viral replication” value (SARS-CoV-2 [1]) of the same compound?
Answer: more than 90%

Question: And the “reduction of viral RNA production” value (SARS-CoV-2 [1]; 24 h post-inoculation)?
Answer: 99.9% and > 99%

Question: What about the IC90 (SARS-CoV-2 [1]; 24 h post-inoculation) of the same compound?
Answer: 7.8 µM

Question: And the IC50 (SARS-CoV-2 [1]; 24 h post-inoculation)?
Answer: 5.4 µM

Question: And the “effect on viral RNA level (in words)” value (SARS-CoV-2 [1]; 24 h post-inoculation)?
Answer: reduced viral RNA level in a dose-dependent manner

Question: And the CC50 (in vitro)?
Answer: > 15 µM

Question: And the “inhibition of Hh signaling (Gli1 mRNA, in words)” value (Hh signaling [10])?
Answer: retains inhibitory activity toward Hh signaling

Question: What about the “cytotoxicity / cell viability (in words)” value (VeroE6/TMPRSS2 cells) of the same compound?
Answer: slightly reduced cell viability when used at concentrations above 10 μM

Question: With CCC(CC)COC(=O)[C@H](C)N[P@](=O)(OC[C@H]1O[C@@](C#N)(c2ccc3c(N)ncnn23)[C@H](O)[C@@H]1O)Oc1ccccc1 [RDV, remdesivir, reference compound] as the compound, how does the IC90 (SARS-CoV-2 [1]; 24 h post-inoculation) read?
Answer: 2.5 µM

Question: And the IC50 (SARS-CoV-2 [1]; 24 h post-inoculation)?
Answer: 1.5 µM

Question: And the “effect on virus propagation / spread of infection, N protein (in words)” value (SARS-CoV-2 [4])?
Answer: blocked

Question: And the “viral RNA, compound present post-entry (in words)” value (SARS-CoV-2 [5])?
Answer: remarkable inhibition

Question: What about the “effect on SARS-CoV-2-induced CPE (in words)” value (SARS-CoV-2 [6]) of the same compound?
Answer: blocked the virus-induced CPE

Question: And the CC50 at 24 h [11]?
Answer: > 10 µM

Question: For NC(=O)c1ccc(-c2nc(-c3ccc4c(c3)OCO4)c(-c3ccccn3)[nH]2)cc1 [SB431542, reference compound], which “effect of pathway inhibitors on viral RNA (in words)” value (SARS-CoV-2 [1]; 24 h post-inoculation) is on record?
Answer: did not significantly inhibit the production of viral RNA

Question: For CC(C)OC(=O)[C@H](C)N[P@](=O)(OC[C@H]1O[C@@H](n2ccc(=O)[nH]c2=O)[C@](C)(F)[C@@H]1O)Oc1ccccc1 [sofosbuvir, reference compound], which “HCV replication, luciferase activity (in words)” value (hepatitis C virus (HCV)) is on record?
Answer: positive control

Reference: PMC8003796, “Identification of Anti-Severe Acute Respiratory Syndrome-Related Coronavirus 2 (SARS-CoV-2) Oxysterol Derivatives In Vitro” (International Journal of Molecular Sciences, 2021)
